Assay results published in US7964531B2, “3-phenoxy-4-pyridazinol derivatives and herbicidal composition containing the same” (Mitsui Chemicals Agro, Inc., priority 2001, dated 2011).

How the values were obtained:
Type in all cases: in vivo
[1] = system: transplanted paddy-field rice; experiment: Test Example 4: crop injury against transplanted paddy-field rice; conditions: no second compound, after 25 days
Procedure: (§1) Paddy filed soil was filled in 1/5000 are Wagner pot, seeds of barnyardgrass (Echinochloa oryzicola Vasing.), Scirpus joncoides and annual broad-leaved weeds (Lindernia spp. and Rotala indica) which are awaken from dormancy were mixed at the surface layer of 1 cm. Also, tubers of Cyperus serotinus, Sagittaria pygmaea and Eleocharis kuroguwai which are awaken from dormancy were planted, and further seedlings of paddy-field rice at 2.2-leaf stage were transplanted and they were grown under the flooded condition in a greenhouse. After 3 days from the transplanting, a predetermined chemical dosage of the wettable powder prepared in accordance with Preparation example 5 was diluted with water, and applied to the pot. After 25 days, herbicidal effects and crop injury against transplanted paddy-field rice were judged according to the following judgment standard, and the results were shown in Table 5. Incidentally, “-” in the table means a composition containing no effective ingredient.
(§2) Judgment Standard • 0: Growth-inhibition rate; 0 to 15% • 1: Growth inhibition rate; 16 to 35% • 2: Growth inhibition rate; 36 to 55% • 3: Growth inhibition rate; 56 to 75% • 4: Growth inhibition rate; […] • 5: Growth inhibition rate; 96 to 100%.

[2] = system: annual broad-leaved weeds (Lindernia spp. and Rotala indica); experiment: Test Example 4: herbicidal effects of mixed wettable powder, paddy-field pot test; conditions: no second compound, after 25 days
Procedure: as §1, §2

[3] = system: Cyperus serotinus; experiment: as above; conditions: no second compound, after 25 days
Procedure: as §1, §2

[4] = system: Eleocharis kuroguwai; experiment: as above; conditions: no second compound, after 25 days
Procedure: as §1, §2

[5] = system: Sagittaria pygmaea; experiment: as above; conditions: no second compound, after 25 days
Procedure: as §1, §2

[6] = system: barnyardgrass (Echinochloa oryzicola Vasing.); experiment: as above; conditions: no second compound, after 25 days
Procedure: as §1, §2

[7] = system: Scirpus joncoides; experiment: as above; conditions: no second compound, after 25 days
Procedure: as §1, §2

[8] = system: transplanted paddy-field rice; experiment: Test Example 1: crop injury against transplanted paddy-field rice; conditions: wettable powder applied 3 days after transplanting, judged after 25 days
How it was run: (§3)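 Herbicidal effect and rice injury were graded on a six-step growth-inhibition scale (0: 0–10% to 5: 91–100%) at 25 days after pot application of water-diluted wettable powder, given 3 days post-transplant under flooded greenhouse conditions.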

[9] = system: Cyperus serotinus; experiment: Test Example 1: herbicidal effects, paddy-field pot test; conditions: wettable powder applied 3 days after transplanting, judged after 25 days
How it was run: as §3

[10] = system: annual broad-leaved weeds (Lindernia spp., Rotala indica); experiment: as above; conditions: wettable powder applied 3 days after transplanting, judged after 25 days
How it was run: as §3

[11] = system: barnyardgrass (Echinochloa oryzicola Vasing.); experiment: as above; conditions: wettable powder applied 3 days after transplanting, judged after 25 days
How it was run: as §3

[12] = system: Scirpus joncoides; experiment: as above; conditions: wettable powder applied 3 days after transplanting, judged after 25 days
How it was run: as §3

| SMILES | Crop injury against transplanted rice ([1]; derivative 5 g/a) | Crop injury against transplanted rice ([1]; derivative 10 g/a) | Herbicidal effects Broad leaf ([2]; derivative 5 g/a) | Herbicidal effects Broad leaf ([2]; derivative 10 g/a) | Herbicidal effects Cyperus serotinus ([3]; derivative 5 g/a) | Herbicidal effects Cyperus serotinus ([3]; derivative 10 g/a) | Herbicidal effects Eleocharis kuroguwai ([4]; derivative 5 g/a) | Herbicidal effects Eleocharis kuroguwai ([4]; derivative 10 g/a) | Herbicidal effects Sagittaria pygmaea ([5]; derivative 5 g/a) | Herbicidal effects Sagittaria pygmaea ([5]; derivative 10 g/a) | Herbicidal effects Barnyard grass ([6]; derivative 5 g/a) | Herbicidal effects Barnyard grass ([6]; derivative 10 g/a) | Herbicidal effects Scirpus joncoides ([7]; derivative 5 g/a) | Herbicidal effects Scirpus joncoides ([7]; derivative 10 g/a) | Crop injury against transplanted rice ([8]; chemical dosage 10 g/a) | Crop injury against transplanted rice ([8]; chemical dosage 20 g/a) | Herbicidal effects Cyperus serotinus ([9]; chemical dosage 10 g/a) | Herbicidal effects Cyperus serotinus ([9]; chemical dosage 20 g/a) | Herbicidal effects Broad leaf ([10]; chemical dosage 10 g/a) | Herbicidal effects Broad leaf ([10]; chemical dosage 20 g/a) | also measured |
| --- | --- | --- | --- | --- | --- | --- | --- | --- | --- | --- | --- | --- | --- | --- | --- | --- | --- | --- | --- | --- | --- |
| Cc1cc(C)c(C2CC2)c(Oc2nnc(Cl)cc2O)c1 [Example 288] | 0 (Growth-inhibition rate; 0 to 15%) | 0 (Growth-inhibition rate; 0 to 15%) | 5 (Growth inhibition rate; 96 to 100%) | 5 (Growth inhibition rate; 96 to 100%) | 4 (Growth inhibition rate; 7.6 to 95%) | 5 (Growth inhibition rate; 96 to 100%) | 2 (Growth inhibition rate; 36 to 55%) | 3 (Growth inhibition rate; 56 to 75%) | 5 (Growth inhibition rate; 96 to 100%) | 5 (Growth inhibition rate; 96 to 100%) | 0 (Growth-inhibition rate; 0 to 15%) | 0 (Growth-inhibition rate; 0 to 15%) | 5 (Growth inhibition rate; 96 to 100%) | 5 (Growth inhibition rate; 96 to 100%) | 0 (Growth inhibition rate; 0 to 10%) | 0 (Growth inhibition rate; 0 to 10%) | 5 (Growth inhibition rate; 91 to 100%) | 5 (Growth inhibition rate; 91 to 100%) | 5 (Growth inhibition rate; 91 to 100%) | 5 (Growth inhibition rate; 91 to 100%) | Herbicidal effects Barnyard grass ([11]; chemical dosage 10 g/a): 0 (Growth inhibition rate; 0 to 10%); Herbicidal effects Barnyard grass ([11]; chemical dosage 20 g/a): 1 (Growth inhibition rate; 11 to 30%); Herbicidal effects Scirpus joncoides ([12]; chemical dosage 10 g/a): 5 (Growth inhibition rate; 91 to 100%); Herbicidal effects Scirpus joncoides ([12]; chemical dosage 20 g/a): 5 (Growth inhibition rate; 91 to 100%) |
| Cc1ccccc1Oc1nnc(Cl)cc1O [Example 1] | 0 (Growth-inhibition rate; 0 to 15%) | 0 (Growth-inhibition rate; 0 to 15%) | 3 (Growth inhibition rate; 56 to 75%) | 4 (Growth inhibition rate; 7.6 to 95%) | 4 (Growth inhibition rate; 7.6 to 95%) | 5 (Growth inhibition rate; 96 to 100%) | 0 (Growth-inhibition rate; 0 to 15%) | 0 (Growth-inhibition rate; 0 to 15%) | 4 (Growth inhibition rate; 7.6 to 95%) | 4 (Growth inhibition rate; 7.6 to 95%) | 2 (Growth inhibition rate; 36 to 55%) | 4 (Growth inhibition rate; 7.6 to 95%) | 2 (Growth inhibition rate; 36 to 55%) | 4 (Growth inhibition rate; 7.6 to 95%) | – | – | – | – | – | – | Crop injury against transplanted rice ([8]; chemical dosage 12.5 g/a): 0 (Growth inhibition rate; 0 to 10%); Crop injury against transplanted rice ([8]; chemical dosage 25 g/a): 0 (Growth inhibition rate; 0 to 10%); Herbicidal effects Cyperus serotinus ([9]; chemical dosage 12.5 g/a): 5 (Growth inhibition rate; 91 to 100%); Herbicidal effects Cyperus serotinus ([9]; chemical dosage 25 g/a): 5 (Growth inhibition rate; 91 to 100%); Herbicidal effects Broad leaf ([10]; chemical dosage 12.5 g/a): 5 (Growth inhibition rate; 91 to 100%); Herbicidal effects Broad leaf ([10]; chemical dosage 25 g/a): 5 (Growth inhibition rate; 91 to 100%); Herbicidal effects Barnyard grass ([11]; chemical dosage 12.5 g/a): 4 (Growth inhibition rate; 71 to 90%); Herbicidal effects Barnyard grass ([11]; chemical dosage 25 g/a): 5 (Growth inhibition rate; 91 to 100%); Herbicidal effects Scirpus joncoides ([12]; chemical dosage 12.5 g/a): 5 (Growth inhibition rate; 91 to 100%); Herbicidal effects Scirpus joncoides ([12]; chemical dosage 25 g/a): 5 (Growth inhibition rate; 91 to 100%) |
| COc1ccc(C)cc1Oc1nnc(Cl)cc1O [Example 16] | 0 (Growth-inhibition rate; 0 to 15%) | 0 (Growth-inhibition rate; 0 to 15%) | 5 (Growth inhibition rate; 96 to 100%) | 5 (Growth inhibition rate; 96 to 100%) | 4 (Growth inhibition rate; 7.6 to 95%) | 5 (Growth inhibition rate; 96 to 100%) | 0 (Growth-inhibition rate; 0 to 15%) | 1 (Growth inhibition rate; 16 to 35%) | 3 (Growth inhibition rate; 56 to 75%) | 4 (Growth inhibition rate; 7.6 to 95%) | 0 (Growth-inhibition rate; 0 to 15%) | 0 (Growth-inhibition rate; 0 to 15%) | 3 (Growth inhibition rate; 56 to 75%) | 5 (Growth inhibition rate; 96 to 100%) | 0 (Growth inhibition rate; 0 to 10%) | 0 (Growth inhibition rate; 0 to 10%) | 5 (Growth inhibition rate; 91 to 100%) | 5 (Growth inhibition rate; 91 to 100%) | 5 (Growth inhibition rate; 91 to 100%) | 5 (Growth inhibition rate; 91 to 100%) | Herbicidal effects Barnyard grass ([11]; chemical dosage 10 g/a): 0 (Growth inhibition rate; 0 to 10%); Herbicidal effects Barnyard grass ([11]; chemical dosage 20 g/a): 1 (Growth inhibition rate; 11 to 30%); Herbicidal effects Scirpus joncoides ([12]; chemical dosage 10 g/a): 5 (Growth inhibition rate; 91 to 100%); Herbicidal effects Scirpus joncoides ([12]; chemical dosage 20 g/a): 5 (Growth inhibition rate; 91 to 100%) |
| Oc1cc(Cl)nnc1Oc1ccccc1C1CC1 [Example 6] | 0 (Growth-inhibition rate; 0 to 15%) | 0 (Growth-inhibition rate; 0 to 15%) | 5 (Growth inhibition rate; 96 to 100%) | 5 (Growth inhibition rate; 96 to 100%) | 5 (Growth inhibition rate; 96 to 100%) | 5 (Growth inhibition rate; 96 to 100%) | 2 (Growth inhibition rate; 36 to 55%) | 3 (Growth inhibition rate; 56 to 75%) | 5 (Growth inhibition rate; 96 to 100%) | 5 (Growth inhibition rate; 96 to 100%) | 1 (Growth inhibition rate; 16 to 35%) | 2 (Growth inhibition rate; 36 to 55%) | 5 (Growth inhibition rate; 96 to 100%) | 5 (Growth inhibition rate; 96 to 100%) | 0 (Growth inhibition rate; 0 to 10%) | 0 (Growth inhibition rate; 0 to 10%) | 5 (Growth inhibition rate; 91 to 100%) | 5 (Growth inhibition rate; 91 to 100%) | 5 (Growth inhibition rate; 91 to 100%) | 5 (Growth inhibition rate; 91 to 100%) | Herbicidal effects Barnyard grass ([11]; chemical dosage 10 g/a): 2 (Growth inhibition rate; 31 to 50%); Herbicidal effects Barnyard grass ([11]; chemical dosage 20 g/a): 3 (Growth inhibition rate; 51 to 70%); Herbicidal effects Scirpus joncoides ([12]; chemical dosage 10 g/a): 5 (Growth inhibition rate; 91 to 100%); Herbicidal effects Scirpus joncoides ([12]; chemical dosage 20 g/a): 5 (Growth inhibition rate; 91 to 100%) |
